Data taken from patent publication US20240108634A1, “COMPOSITIONS AND METHODS FOR INHIBITING YAP” (The United States Government as represented by the …, priority 2021, published 2024).

What was measured:
[1] = target: T1, YAP association with TEAD1-4, SMAD7, p73, FOS, TBXS (Homo sapiens, UniProt P46937); assay: HA-YAP1 immunoprecipitation from LN229 cells, immunoblot for TEAD1-4 and other transcription factors; type: cell-based; conditions: LN229 cells expressing HA-YAP, 18 h
T1 construct: expressed in transfected cells
Method: Levels of total YAP were determined via ELISA. […] Immunoprecipitates were immunoblotted for the indicated proteins. […] Cells were treated with the indicated concentrations of inhibitor for 18 h and mRNA extracted for real time RT-PCR analyses. Measurements were performed in quadruplicate and means and+S.D. are shown. […] Cells were treated with (+) or without (−) NSC682769 (100 nM, 18 h) and harvested and separated into cytoplasmic and nuclear cellular fractions. Cytoplasmic versus nuclear material was subsequently immunoblotted for the indicated proteins. […] Values in top right corner of panels correspond to the percentage of nuclear localized YAP. […]
Protein and mRNA analyses, immunoprecipitation, in vitro bead-coupled inhibitor binding assays and HPLC analyses. […] Antigen-antibody complexes were detected using appropriate horseradish peroxidase-conjugated secondary antibodies (GE Healthcare) and enhanced chemiluminescence (Amersham ECL Prime). […] For quantitative RT-PCR, extraction of RNA was performed using Trizol® (Life Technologies). Total RNA was then quantified and integrity assessed using an Agilent 2100 Bioanalyzer (Agilent Technology). […] SYBR® Green quantitative PCR (Millipore Sigma) was performed in triplicate in 96-well optical plates on an ABI Prism 7000 Sequence Detection System (Life Technologies) according to the manufacturer's instructions. […]

LN229 and GBM39 cells = assay: GBM cell proliferation; type: cell-based, human; conditions: 0.1, 1, 2 μM
Description: Cells were layered in soft agar to evaluate anchorage-independent growth in the presence of the indicated concentrations of inhibitor and colonies counted following 14 days of growth. Representative crystal violet stained images are shown below. Data represent mean+S.D. of three independent experiments. […] Cells were placed in Boyden chambers and allowed to migrate towards BSA (white bars), vitronectin (light yellow bars), or fibronectin (dark yellow bars) (*, P<0.05; n=3). […] Representative crystal violet stained images are shown (200×). Data represent mean+S.D. of three independent experiments. […] Graphical data shown below represent mean+S.D. (late apoptosis; annexin V-positive, PI-positive) of three independent experiments.
Cell proliferation, clonogenic, migration, invasion and apoptosis assays. Cell proliferation was determined via Cell Titer-Glo® luminescent cell assays (Promega). Clonogenic assays were done by plating a total of 1,000 cells per well in 24-well plates in a total volume of 400 μL using a two-layered soft agar system as previously described (Masri J, et al. (2007) Cancer Res 67: 11712-11720). Cell migration assays were conducted using precoated modified Boyden chambers as previously described (Benavides-Serrato A, et al. (2017) PLoS One 12: e0176599). […]

normal human neurons = assay: TUNEL staining of normal human neurons; type: cell-based; conditions: 48 h exposures
Description: Data shown are mean+S.D., n=3.
Materials and Methods. Cell culture, vectors and reagents. Normal mature human neurons were obtained from ScienCell (Carlsbad, CA). Lines were routinely tested to confirm the absence of mycoplasma and authenticated by short tandem repeat profiling (ATCC). The myc-tagged TEAD (pRK5-Myc-TEAD1) and HA-tagged YAP1 (pCl-HA-YAP) vectors were used for mammalian expression and TEAD was subcloned into pGEX-2TK, while YAP was subcloned into pET-14b for bacterial expression and purification. DNA transfections were performed using Effectene transfection reagent according to the manufacturer (QIAGEN) and lentiviral transductions were performed as previously described (Rosenbluh J, et al. (2012) Cell 151: 1457-1473). Large-scale syntheses of NSC682769 was performed by New England Discovery Partners, Branford, CT. The other reagents including kits for ALT, AST and creatinine level determinations were from Sigma-Aldrich.

T1 sequence (P46937 whole entry): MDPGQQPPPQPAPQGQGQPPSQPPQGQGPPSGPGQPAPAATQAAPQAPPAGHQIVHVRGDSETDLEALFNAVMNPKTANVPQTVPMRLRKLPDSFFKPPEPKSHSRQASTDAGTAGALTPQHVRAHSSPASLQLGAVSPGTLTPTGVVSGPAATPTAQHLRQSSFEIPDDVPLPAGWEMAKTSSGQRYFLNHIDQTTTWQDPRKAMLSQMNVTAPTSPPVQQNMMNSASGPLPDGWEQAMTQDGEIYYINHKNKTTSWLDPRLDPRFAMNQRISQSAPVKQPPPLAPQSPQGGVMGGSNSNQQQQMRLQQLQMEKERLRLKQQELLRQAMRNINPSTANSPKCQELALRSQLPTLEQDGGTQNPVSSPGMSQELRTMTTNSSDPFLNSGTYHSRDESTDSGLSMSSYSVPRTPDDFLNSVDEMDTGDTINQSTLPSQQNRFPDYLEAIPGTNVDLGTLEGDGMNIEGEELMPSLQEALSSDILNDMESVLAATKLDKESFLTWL

## COc1ccc(-c2cc(-c3ccccc3)nc3c2CC(=O)Nc2ccccc2-3)cc1OC [NSC682769]
[1]
  Binding of TEAD1-4 to YAP: inhibited the binding of the four TEAD members to YAP
  SMAD7, p73, FOS or TBXS association with YAP: no appreciable effects
LN229 and GBM39 cells
  Cell growth: significantly inhibited
Normal human neurons
  Toxicity to normal human neurons: minimal toxicity
